# Data as given in EP0510271A1, “Novel R106 compounds” (TAKARA SHUZO CO. LTD., priority 1991, dated 1992).
# *1 amine or outer side, *2 acyl side, *3 side chain or, on linkers, in order; H or OH if unused. Where a SMILES comes first, the peptide text is derived from it. [ ]: non-standard residue; d: D form. ξ: configuration not given here. NMePhe(3-F) = CN[CH](Cc1cccc(F)c1)C(=O)O; NMePhe(2-F) = CN[CH](Cc1ccccc1F)C(=O)O; Phe(3-F) = N[CH](Cc1cccc(F)c1)C(=O)O; ξNMeVal(3-OH) = CNC(C(=O)O)C(C)(C)O; Phe(2-F) = N[CH](Cc1ccccc1F)C(=O)O; NMeY = CN[CH](Cc1ccc(O)cc1)C(=O)O; NMeF = CN[CH](Cc1ccccc1)C(=O)O; X1 = CCC(C)C(O[*:1])C(=O)[*:2]; Hyp = O=C(O)[CH]1C[CH](O)CN1; NMeV = CN[CH](C(=O)O)C(C)C; NMeS = CN[CH](CO)C(=O)O; Thz = O=C(O)[CH]1CSCN1
# Experiment: solubility in water
# Details: compared with antibiotics R106
row,SMILES,solubility in water
1,CCC(C)C1NC(=O)C2CCCN2C(=O)C(Cc2ccccc2F)N(C)C(=O)C(Cc2ccccc2F)NC(=O)C(C(C)C)N(C)C(=O)C(C(C)CC)OC(=O)C(C(C)(C)O)N(C)C(=O)C(CC(C)C)NC(=O)C(C(C)C)N(C)C1=O (stereo not drawn) [Compound 1] (cyclo([ξNMeVal(3-OH)][X1][NMeV][Phe(2-F)][NMePhe(2-F)]PI[NMeV]L); configuration not given here),higher solubility in water than antibiotics R106
2,CCC(C)C1NC(=O)C2CSCN2C(=O)C(Cc2ccccc2)N(C)C(=O)C(Cc2ccccc2)NC(=O)C(C(C)C)N(C)C(=O)C(C(C)CC)OC(=O)C(C(C)(C)O)N(C)C(=O)C(CC(C)C)NC(=O)C(C(C)C)N(C)C1=O (stereo not drawn) [Compound 5] (cyclo([ξNMeVal(3-OH)][X1][NMeV]F[NMeF][Thz]I[NMeV]L); configuration not given here),higher solubility in water than antibiotics R106
3,CCC(C)C1NC(=O)C2CCCN2C(=O)C(CO)N(C)C(=O)C(Cc2ccccc2)NC(=O)C(C(C)C)N(C)C(=O)C(C(C)CC)OC(=O)C(C(C)(C)O)N(C)C(=O)C(CC(C)C)NC(=O)C(C(C)C)N(C)C1=O (stereo not drawn) [Compound 9] (cyclo([ξNMeVal(3-OH)][X1][NMeV]F[NMeS]PI[NMeV]L); configuration not given here),higher solubility in water than antibiotics R106
4,CCC(C)C1NC(=O)C2CCCN2C(=O)C(Cc2cccc(F)c2)N(C)C(=O)C(Cc2cccc(F)c2)NC(=O)C(C(C)C)N(C)C(=O)C(C(C)CC)OC(=O)C(C(C)(C)O)N(C)C(=O)C(CC(C)C)NC(=O)C(C(C)C)N(C)C1=O (stereo not drawn) [Compound 2] (cyclo([ξNMeVal(3-OH)][X1][NMeV][Phe(3-F)][NMePhe(3-F)]PI[NMeV]L); configuration not given here),higher solubility in water than antibiotics R106
5,CCC(C)C1NC(=O)C2CC(O)CN2C(=O)C(Cc2ccccc2)N(C)C(=O)C(Cc2ccccc2)NC(=O)C(C(C)C)N(C)C(=O)C(C(C)CC)OC(=O)C(C(C)(C)O)N(C)C(=O)C(CC(C)C)NC(=O)C(C(C)C)N(C)C1=O (stereo not drawn) [Compound 4] (cyclo([ξNMeVal(3-OH)][X1][NMeV]F[NMeF][Hyp]I[NMeV]L); configuration not given here),higher solubility in water than antibiotics R106
6,CCC(C)C1NC(=O)C2CCCN2C(=O)C(Cc2ccc(O)cc2)N(C)C(=O)C(Cc2ccc(O)cc2)NC(=O)C(C(C)C)N(C)C(=O)C(C(C)CC)OC(=O)C(C(C)(C)O)N(C)C(=O)C(CC(C)C)NC(=O)C(C(C)C)N(C)C1=O (stereo not drawn) [Compound 3] (cyclo([ξNMeVal(3-OH)][X1][NMeV]Y[NMeY]PI[NMeV]L); configuration not given here),higher solubility in water than antibiotics R106
